Where two headings read alike, the source gives them in different places. Starred links: 1 amine or outer side, 2 acyl side, 3 side chain; linkers in the order of their positions; H or OH if unused. Non-standard residues stand in square brackets, D forms with d. Residues, ends and D or L forms follow the SMILES beside them. X21 = CCN1CCN(C[C@@H](C)[C@@H](C(=O)[*:2])N(C)[*:1])CC1; X23 = COC1CN(C[C@@H](C)[C@@H](C(=O)[*:2])N(C)[*:1])C1; X18 = C[C@H](CCC(C)(C)O)[C@@H](C(=O)[*:2])N(C)[*:1]; X9 = C[C@@H](CN1CCOCC1)[C@@H](C(=O)[*:2])N(C)[*:1]; MeBmt = C/C=C/C[C@@H](C)[C@@H](O)[C@H](NC)C(=O)O; X15 = COCC(COC)[C@@H](C(=O)[*:2])N(C)[*:1]; NMeL = CN[C@@H](CC(C)C)C(=O)O; NMeV = CN[C@H](C(=O)O)C(C)C; dNMeA = CN[C@H](C)C(=O)O; Abu = CC[C@H](N)C(=O)O
How the values were obtained:
[1] = target: CYP3A4 (Homo sapiens (Human), UniProt P08684); assay: Time-dependent inhibition of CYP3A4;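 also: Two-step in vitro assay, kobs derived from residual CYP3A4 activity versus preincubation time per concentration, then kinact and KI by nonlinear fit of kobs against concentration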
Description: Method 5: Measuring Time-Dependent Inhibition of CYP3A4
The CYP3A4 time dependent inhibition potential of various inhibitors was determined by a two step in vitro assay. […] The inactivation rate constant (kobs) was obtained by plotting the activity remaining over pre-incubation time for each concentration of compound. The maximal inactivation rate (kinact) and the inactivation potency (KI) were calculated by non linear regression analysis of the inactivation rate constant (kobs) versus compound concentrations [I] curve according to the equation kobs=[kinact·[I]]/[KI+[I]]

[2] = target: cyclophilin B (CypB) (Homo sapiens (Human), UniProt P23284); assay: Inhibitor binding to cyclophilin proteins by SPR, CypB; design: unit not given here; settings: 1:1 binding model
Outline: (§1)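 SPR, single-cycle kinetics. Avi-tagged, mono-biotinylated protein on Biotin CAPture chip; running buffer 10 mM HEPES pH 7.4, 150 mM NaCl, 0.05% P20, 3% DMSO. 1 min contacts at 50 μL/min, 10 min dissociation. kon/koff/KD from 1:1 fit.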

[3] = target: CypF (Homo sapiens (Human), UniProt P30405); assay: Inhibitor binding to cyclophilin proteins by SPR, CypF; settings: 1:1 binding model
Outline: as §1

[4] = tested on: peripheral blood mononuclear cells (PBMC); assay: Anti-proliferative or immunosuppressive activity, BrdU incorporation in PHA-stimulated PBMC; type: cell-based; settings: PHA 3 μg/ml, 60 hour compound treatment; read-out: EMV PBMC IC50
Outline: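 Fresh PBMCs from two donors, 30,000 per well in X-VIVO 15 medium, stimulated with 3 μg/ml PHA to drive T-cell proliferation. Proliferation measured as BrdU incorporation into DNA by BrdU ELISA.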

[5] = target: cyclophilin A (CypA) (Homo sapiens (Human), UniProt P62937); assay: Inhibitor binding to cyclophilin proteins by SPR, CypA; design: unit not given here; settings: 1:1 binding model;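 also: Single-cycle kinetics on a Biacore T200, compound injected at several concentrations for 1 min each at 50 µL/min, then 10 min dissociation, in HEPES pH 7.4 buffer with 3% DMSO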
[6] = target: organic anion transporting polypeptide 1B1 (OATP1B1) (Homo sapiens (Human), UniProt Q9Y6L6); assay: OATP assay in CHO-OATP1B1 cells;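 also: inhibition of probe substrate uptake into the cells, ten minutes exposure, accumulated substrate read by fluorescence once cells were lysed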
[7] = tested on: genotype 1b subgenomic HCV replicon in Huh7.5 cells; type: cell-based, hepatitis C virus; settings: read-out: RPLN-1b IC50
Outline: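 Huh7.5 cells carrying genotype 1b subgenomic HCV replicon with renilla luciferase-neomycin reporter, in phenol red-free DMEM without G418. Luciferase measured after 72 h compound exposure relative to DMSO-treated cells; cytotoxicity (CC50) by Cell Titer-Glo.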

[8] = genotype 1b replicon, 72 h incubation

Chain of CYP3A4 (P08684 whole entry): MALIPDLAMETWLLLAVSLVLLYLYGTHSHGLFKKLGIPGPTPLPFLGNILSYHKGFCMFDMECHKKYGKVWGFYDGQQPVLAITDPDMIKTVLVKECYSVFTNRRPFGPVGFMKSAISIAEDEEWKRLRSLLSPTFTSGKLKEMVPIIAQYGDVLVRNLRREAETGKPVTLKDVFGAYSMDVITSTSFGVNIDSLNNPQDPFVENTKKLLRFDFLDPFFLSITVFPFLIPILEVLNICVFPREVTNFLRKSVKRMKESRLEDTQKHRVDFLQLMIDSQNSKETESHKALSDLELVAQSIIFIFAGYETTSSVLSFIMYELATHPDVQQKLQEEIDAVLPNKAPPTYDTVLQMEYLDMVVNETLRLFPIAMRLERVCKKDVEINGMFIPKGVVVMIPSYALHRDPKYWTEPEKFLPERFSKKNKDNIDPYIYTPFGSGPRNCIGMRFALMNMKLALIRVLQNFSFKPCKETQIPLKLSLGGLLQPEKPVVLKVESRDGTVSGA
Chain of cyclophilin B (CypB) (P23284 34-216): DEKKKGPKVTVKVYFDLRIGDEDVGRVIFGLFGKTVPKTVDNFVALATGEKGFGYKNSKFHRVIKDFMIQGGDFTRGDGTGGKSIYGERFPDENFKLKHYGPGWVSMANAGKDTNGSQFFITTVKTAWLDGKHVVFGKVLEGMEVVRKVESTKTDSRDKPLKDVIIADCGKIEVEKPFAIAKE
Chain of cyclophilin A (CypA) (P62937 whole entry): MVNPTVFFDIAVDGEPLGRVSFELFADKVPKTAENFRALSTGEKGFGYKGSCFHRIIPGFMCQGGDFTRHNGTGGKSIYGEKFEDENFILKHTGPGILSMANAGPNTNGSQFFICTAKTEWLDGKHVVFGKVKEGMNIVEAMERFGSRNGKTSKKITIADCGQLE
Chain of CypF (P30405 30-207): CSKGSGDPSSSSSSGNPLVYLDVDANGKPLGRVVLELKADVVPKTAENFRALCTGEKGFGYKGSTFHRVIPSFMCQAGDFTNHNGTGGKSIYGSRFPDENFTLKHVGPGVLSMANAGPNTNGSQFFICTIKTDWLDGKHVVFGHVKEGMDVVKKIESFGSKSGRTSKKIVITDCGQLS
Chain of organic anion transporting polypeptide 1B1 (OATP1B1) (Q9Y6L6 whole entry): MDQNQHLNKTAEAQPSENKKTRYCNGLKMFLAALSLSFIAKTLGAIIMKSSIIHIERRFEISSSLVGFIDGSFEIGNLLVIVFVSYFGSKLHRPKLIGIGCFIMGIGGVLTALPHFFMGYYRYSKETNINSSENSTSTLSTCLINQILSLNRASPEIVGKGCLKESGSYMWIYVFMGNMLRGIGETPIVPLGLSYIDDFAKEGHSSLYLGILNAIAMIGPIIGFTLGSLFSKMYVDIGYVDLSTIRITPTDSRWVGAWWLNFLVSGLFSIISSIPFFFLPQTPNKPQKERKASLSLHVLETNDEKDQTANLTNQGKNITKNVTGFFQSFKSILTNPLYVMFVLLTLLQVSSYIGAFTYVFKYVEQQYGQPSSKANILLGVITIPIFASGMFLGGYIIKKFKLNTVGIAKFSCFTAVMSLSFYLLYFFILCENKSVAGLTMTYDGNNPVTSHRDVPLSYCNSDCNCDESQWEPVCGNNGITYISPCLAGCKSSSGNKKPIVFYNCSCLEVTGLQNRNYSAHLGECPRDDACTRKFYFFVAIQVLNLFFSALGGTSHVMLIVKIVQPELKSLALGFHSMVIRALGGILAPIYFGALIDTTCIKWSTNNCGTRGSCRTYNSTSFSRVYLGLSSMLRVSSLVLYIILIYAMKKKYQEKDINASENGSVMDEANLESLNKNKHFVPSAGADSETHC

## C/C=C/C[C@@H](C)[C@@H](O)[C@H]1C(=O)N[C@@H](CC)C(=O)N(C)[C@H](C)C(=O)N(C)[C@@H]([C@H](C)CN2CCN(CC)CC2)C(=O)N[C@@H](C(C)C)C(=O)N(C)[C@@H](CC(C)C)C(=O)N[C@@H](C)C(=O)N[C@H](C)C(=O)N(C)[C@@H](CC(C)C)C(=O)N(C)[C@@H](CC(C)C)C(=O)N(C)[C@@H](C(C)C)C(=O)N1C [Compound 2.5.13, 3-[D-Ala]-4[(2S,3R)-2-Amino-4-(4-ethyl-piperazin-1-yl)-butanoyl]-cyclosporin] (cyclo(A[dA][NMeL][NMeL][NMeV][MeBmt][Abu][dNMeA][X21]V[NMeL]))
[1]
  Ki: > 50000 nM
[2]
  CypB Kd: 0.8
[3]
  CypF Kd: 0.5 nM
[4]
  IC50: 5300 nM
[5]
  CypA Kd: 0.9
[6]
  IC50: 4560 nM
[7]; [8]
  IC50: 50 nM

## C/C=C/C[C@@H](C)[C@@H](O)[C@H]1C(=O)N[C@@H](CC)C(=O)N(C)[C@H](C)C(=O)N(C)[C@@H]([C@H](C)CO[C@H]2CCOC2)C(=O)N[C@@H](C(C)C)C(=O)N(C)[C@@H](CC(C)C)C(=O)N[C@@H](C)C(=O)N[C@H](C)C(=O)N(C)[C@@H](CC(C)C)C(=O)N(C)[C@@H](CC(C)C)C(=O)N(C)[C@@H](C(C)C)C(=O)N1C (stereo in doubt) [Compound 2.16]
[1]
  Ki: > 50000 nM
[2]
  CypB Kd: 0.5
[3]
  CypF Kd: 0.4 nM
[4]
  IC50: 13700 nM
[5]
  CypA Kd: 1.0
[6]
  IC50: 1900 nM
[7]
  IC50: 25 nM

## C/C=C/C[C@@H](C)[C@@H](O)[C@H]1C(=O)N[C@@H](CC)C(=O)N(C)[C@H](C)C(=O)N(C)[C@@H]([C@H](C)CCC(C)(C)O)C(=O)N[C@@H](C(C)C)C(=O)N(C)[C@@H](CC(C)C)C(=O)N[C@@H](C)C(=O)N[C@H](C)C(=O)N(C)[C@@H](CC(C)C)C(=O)N(C)[C@@H](CC(C)C)C(=O)N(C)[C@@H](C(C)C)C(=O)N1C [Compound 2.12, 3-[D-Ala]-4-[(2S,3R)-6-hydroxy-3,6-dimethyl-2-(methylamino)heptanoyl]-cyclosporin] (cyclo(A[dA][NMeL][NMeL][NMeV][MeBmt][Abu][dNMeA][X18]V[NMeL]))
[1]
  Ki: > 50000 nM
[2]
  CypB Kd: 1.1
[3]
  CypF Kd: 1.1 nM
[4]
  IC50: 7100 nM
[5]
  CypA Kd: 2.1
[6]
  IC50: 2200 nM
[7]
  IC50: 80 nM

## C/C=C/C[C@@H](C)[C@@H](O)[C@H]1C(=O)N[C@@H](CC)C(=O)N(C)[C@H](C)C(=O)N(C)[C@@H]([C@@H](C)CN2CCOCC2)C(=O)N[C@@H](C(C)C)C(=O)N(C)[C@@H](CC(C)C)C(=O)N[C@@H](C)C(=O)N[C@H](C)C(=O)N(C)[C@@H](CC(C)C)C(=O)N(C)[C@@H](CC(C)C)C(=O)N(C)[C@@H](C(C)C)C(=O)N1C [Compound 2.17.1, 3-[D-Ala]-4[(2S,3S)-2-Amino-3-methyl-4-morpholin-4-yl-butanoyl]-cyclosporin] (cyclo(A[dA][NMeL][NMeL][NMeV][MeBmt][Abu][dNMeA][X9]V[NMeL]))
[1]
  Ki: > 50000 nM
[2]
  CypB Kd: 0.4
[3]
  CypF Kd: 0.3 nM
[4]
  IC50: 18000 nM
[5]
  CypA Kd: 0.6
[6]
  IC50: 3600 nM
[7]; [8]
  IC50: 29 nM

## C/C=C/C[C@@H](C)[C@@H](O)[C@H]1C(=O)N[C@@H](CC)C(=O)N(C)[C@H](C)C(=O)N(C)[C@@H]([C@H](C)CN2CC(OC)C2)C(=O)N[C@@H](C(C)C)C(=O)N(C)[C@@H](CC(C)C)C(=O)N[C@@H](C)C(=O)N[C@H](C)C(=O)N(C)[C@@H](CC(C)C)C(=O)N(C)[C@@H](CC(C)C)C(=O)N(C)[C@@H](C(C)C)C(=O)N1C [Compound 2.5.17, 3-[D-Ala]-4-[(2S,3R)-4-(3-methoxyazetidin-1-yl)-3-methyl-2-(methylamino)butanoyl]-cyclosporin] (cyclo(A[dA][NMeL][NMeL][NMeV][MeBmt][Abu][dNMeA][X23]V[NMeL]))
[1]
  Ki: > 50000 nM
[2]
  CypB Kd: 0.9
[3]
  CypF Kd: 1 nM
[4]
  IC50: 17600 nM
[5]
  CypA Kd: 1.9
[6]
  IC50: 4200 nM
[7]; [8]
  IC50: 44 nM

## C/C=C/C[C@@H](C)[C@@H](O)[C@H]1C(=O)N[C@@H](CC)C(=O)N(C)[C@H](C)C(=O)N(C)[C@@H](C(COC)COC)C(=O)N[C@@H](C(C)C)C(=O)N(C)[C@@H](CC(C)C)C(=O)N[C@@H](C)C(=O)N[C@H](C)C(=O)N(C)[C@@H](CC(C)C)C(=O)N(C)[C@@H](CC(C)C)C(=O)N(C)[C@@H](C(C)C)C(=O)N1C [Compound 2.11, 3-[D-Ala]-4-[(S)-4-methoxy-3-(methoxymethyl)-2-(methylamino)butanoyl]-cyclosporin] (cyclo(A[dA][NMeL][NMeL][NMeV][MeBmt][Abu][dNMeA][X15]V[NMeL]))
[1]
  Ki: > 50000 nM
[2]
  CypB Kd: 1.3
[3]
  CypF Kd: 1.2 nM
[4]
  IC50: 7900 nM
[5]
  CypA Kd: 1.9
[6]
  IC50: 2600 nM
[7]; [8]
  IC50: 58 nM

Source: US9566312B2, “Cyclic peptides and use as medicines” (priority 2012, dated 2017)
